Ends that are not written are not given here.
T1: αENaC (Homo sapiens, UniProt P37088)
T1 sequence (P37088 1-669): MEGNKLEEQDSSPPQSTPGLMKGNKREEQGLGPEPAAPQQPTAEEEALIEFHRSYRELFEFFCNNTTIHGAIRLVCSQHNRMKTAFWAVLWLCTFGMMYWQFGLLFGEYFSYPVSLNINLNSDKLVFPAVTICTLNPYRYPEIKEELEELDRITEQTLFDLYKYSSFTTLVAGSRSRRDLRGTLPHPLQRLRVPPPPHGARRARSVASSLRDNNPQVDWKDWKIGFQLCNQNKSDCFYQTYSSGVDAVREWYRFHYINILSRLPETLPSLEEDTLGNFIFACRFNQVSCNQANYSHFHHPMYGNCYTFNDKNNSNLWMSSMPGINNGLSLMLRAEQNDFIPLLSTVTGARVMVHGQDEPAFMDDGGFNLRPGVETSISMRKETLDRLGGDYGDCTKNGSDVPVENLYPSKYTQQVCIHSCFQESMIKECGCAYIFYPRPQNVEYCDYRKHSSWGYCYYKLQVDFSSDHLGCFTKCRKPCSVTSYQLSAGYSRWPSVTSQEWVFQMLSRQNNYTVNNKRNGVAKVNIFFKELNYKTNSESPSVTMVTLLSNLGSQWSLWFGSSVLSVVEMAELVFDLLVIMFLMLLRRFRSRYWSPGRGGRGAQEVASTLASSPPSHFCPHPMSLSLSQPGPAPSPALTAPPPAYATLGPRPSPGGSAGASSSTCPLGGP

T2: ENaC (Homo sapiens, UniProt P37088+P51168+P51170)
T2 construct: measured the transepithelial voltage under thin film conditions in human bronchial epithelial cultures; endogenous in cells; host or cells: primary human bronchial epithelial cultures (normal or CF donors)
T2 sequence (P37088 1-669): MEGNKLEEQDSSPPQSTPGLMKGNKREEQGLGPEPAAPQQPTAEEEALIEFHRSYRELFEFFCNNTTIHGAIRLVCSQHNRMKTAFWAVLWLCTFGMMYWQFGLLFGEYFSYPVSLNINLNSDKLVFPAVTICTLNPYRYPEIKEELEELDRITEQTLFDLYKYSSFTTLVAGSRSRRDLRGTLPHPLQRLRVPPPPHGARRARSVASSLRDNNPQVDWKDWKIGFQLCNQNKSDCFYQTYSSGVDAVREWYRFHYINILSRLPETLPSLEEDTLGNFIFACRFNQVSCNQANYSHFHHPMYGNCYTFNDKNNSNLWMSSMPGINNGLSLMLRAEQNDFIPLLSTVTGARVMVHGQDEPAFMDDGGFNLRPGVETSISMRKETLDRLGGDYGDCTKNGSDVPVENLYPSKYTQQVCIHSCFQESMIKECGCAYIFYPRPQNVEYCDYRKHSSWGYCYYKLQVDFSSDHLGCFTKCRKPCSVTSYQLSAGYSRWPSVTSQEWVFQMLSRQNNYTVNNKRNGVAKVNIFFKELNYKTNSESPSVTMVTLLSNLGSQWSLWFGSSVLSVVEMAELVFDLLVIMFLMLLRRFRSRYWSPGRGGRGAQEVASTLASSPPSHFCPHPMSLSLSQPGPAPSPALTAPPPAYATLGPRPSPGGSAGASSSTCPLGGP
T2 sequence (P51168 1-640): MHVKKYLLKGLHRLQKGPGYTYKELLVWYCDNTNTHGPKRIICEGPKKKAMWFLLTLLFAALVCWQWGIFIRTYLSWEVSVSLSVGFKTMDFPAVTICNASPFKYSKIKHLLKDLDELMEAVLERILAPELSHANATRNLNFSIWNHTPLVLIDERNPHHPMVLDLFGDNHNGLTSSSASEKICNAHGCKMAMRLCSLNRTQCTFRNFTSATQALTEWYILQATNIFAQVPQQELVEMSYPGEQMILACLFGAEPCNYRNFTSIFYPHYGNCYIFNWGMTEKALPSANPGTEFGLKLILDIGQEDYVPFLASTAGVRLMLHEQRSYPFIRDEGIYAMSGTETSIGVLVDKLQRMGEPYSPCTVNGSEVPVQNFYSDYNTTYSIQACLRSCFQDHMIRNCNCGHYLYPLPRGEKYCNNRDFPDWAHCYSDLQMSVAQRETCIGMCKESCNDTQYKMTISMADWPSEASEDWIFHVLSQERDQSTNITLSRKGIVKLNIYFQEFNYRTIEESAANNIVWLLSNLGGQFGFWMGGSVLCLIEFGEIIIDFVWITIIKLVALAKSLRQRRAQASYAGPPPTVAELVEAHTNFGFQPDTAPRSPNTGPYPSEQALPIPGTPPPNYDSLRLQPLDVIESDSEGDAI
T2 sequence (P51170 1-649): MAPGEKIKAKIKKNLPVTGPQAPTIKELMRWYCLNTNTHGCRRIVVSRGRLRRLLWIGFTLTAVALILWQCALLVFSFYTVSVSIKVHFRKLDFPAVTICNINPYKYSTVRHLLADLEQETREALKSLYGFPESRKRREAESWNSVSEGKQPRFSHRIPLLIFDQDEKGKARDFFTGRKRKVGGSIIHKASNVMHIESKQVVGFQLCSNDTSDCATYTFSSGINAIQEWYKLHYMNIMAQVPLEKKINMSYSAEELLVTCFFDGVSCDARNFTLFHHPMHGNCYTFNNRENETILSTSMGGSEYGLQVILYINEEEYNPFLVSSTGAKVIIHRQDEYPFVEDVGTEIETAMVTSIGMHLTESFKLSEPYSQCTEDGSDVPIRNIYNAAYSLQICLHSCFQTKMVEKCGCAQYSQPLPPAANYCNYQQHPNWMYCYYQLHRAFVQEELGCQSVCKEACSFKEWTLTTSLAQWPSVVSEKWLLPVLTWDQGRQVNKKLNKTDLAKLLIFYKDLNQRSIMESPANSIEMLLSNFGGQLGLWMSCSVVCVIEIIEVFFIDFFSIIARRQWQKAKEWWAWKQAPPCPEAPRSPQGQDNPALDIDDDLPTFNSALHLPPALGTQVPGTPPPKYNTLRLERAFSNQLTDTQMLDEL


Experiments:
αENaC = target: T1, αENaC; test: Biotinylated peptide pull-down of ENaC subunits from HEK293T cells; type: binding; set-up: expressed in transfected cells; host or cells: HEK293T cells (lysate); conditions: subunits individually expressed
Experimental: HEK293T cells were transfected with double-tagged human ENaC subunits with HA and V5 epitopes at the N- and C-termini, respectively, in combination with wild-type untagged subunit cDNA. When all three ENaC subunits were expressed, 0.5 μg of each subunit were transfected per well. When expressed individually, 0.75 μg of the subunit were transfected per well. The transfected cells were lysed 24 h later using NP-40 buffer with 1× complete EDTA-free protease inhibitor (Roche, Basel, Switzerland). The lysate was centrifuged at 16,300×g for 15 minutes at 4° C. and the supernatant collected. Protein concentration was determined using the BCA assay and 500 μg of protein plus 0.25 mg peptide and 100 μL of neutravidin were added to a spin column and rotated end-over-end at 4° C. for 24 h (all ThermoFisher Scientific, Rockford, Ill., USA). Flow-through was collected by centrifugation at 1000×g for 30 s. […] The membrane was probed using 1:1000 anti-V5 antibody (Invitrogen, Carlsbad, Calif., USA) overnight at 4° C. in 3% fish gelatin in TBS-T. The blot was then incubated for 1 h at room temperature with an ECL sheep anti-mouse IgG secondary antibody and detected by ECL reagent (ThermoFisher Scientific, Waltham, Mass., USA) or by incubation with a goat anti-mouse IRDye secondary antibody and analyzed by an Odyssey infrared imaging system (LI-COR Biosciences, Lincoln, Nebr., USA).

ENaC = target: T2, ENaC; test: Transepithelial electrical resistance in human bronchial epithelial cultures; type: cell-based; conditions: 50 ng/ml SPLUNC1 30 min or amiloride 10 min; effects not additive
Text: A single-barreled potential difference-sensing electrode was placed in the airway surface liquid by micromanipulator and used in conjunction with a macroelectrode in the serosal solution to measure transepithelial voltage using a voltmeter (World Precision Instruments). […] Transepithelial resistance was routinely measured using the EVOM system (WPI) as previously described ([…] et al., J. Gen. Physiol. 127:591 (2006)).

Row | Molecule | binding to αENaC (pull-down) (αENaC) | increase of transepithelial electrical resistance (ENaC)
1 | GGLPVPLDQTLPLNVNPA [S18] | without any detectable binding | –
2 | SPLUNC1: human SPLUNC1 (SEQ ID NO:1), 256 amino acid secreted PLUNC family protein; rSPLUNC1 is the purified V5/6His-tagged recombinant form (protein, listed as Homo sapiens, V5/6His tag in recombinant form, rSPLUNC1 is the purified V5/6His-tagged recombinant form) MFQTGGLIVFYGLLAQTMAQFGGLPVPLDQTLPLNVNPALPLSPTGLAGSLTNALSNGLLSGGLLGILENLPLLDILKPGGGTSGGLLGGLLGKVTSVIPGLNNIIDIKVTDPQLLELGLVQSPDGHRLYVTIPLGIKLQVNTPLVGASLLRLAVKLDITAEILAVRDKQERIHLVLGDCTHSPGSLQISLLDGLGPLPIQGLLDSLTGILNKVLPELVQGNVCPLVNEVLRGLDITLVHDIVNMLIHGLQFVIKV | – | ~33%
